The record followed here is patent US20240109914A1, “IMIDAZOTHIAZOLE COMPOUNDS AND ANALOGS THEREOF AND METHODS FOR TREATING NEMATODE INFECTIONS IN PLANTS” (The Governing Council of The University of Toronto, priority 2021, published 2024).

Read-outs that look alike come from different tables or passages of the source. Some results are limits rather than exact numbers.

One data set deals with C. elegans. Put plainly: C. elegans dose-response (viability, minimum lethal concentration). The class given is in vivo, Caenorhabditis elegans. The conditions noted are these: Caenorhabditis elegans, 72 h, L1 worms, 3 days at 20° C. The method, then:
Forty microliters of an HB101 E. coli bacterial suspension in liquid NGM (nematode growth media—see ref. 42 for the recipe) was added to each well of a 96-well flat-bottom culture plate, after which approximately 25 synchronized L1 worms, in 10 μl of M9 buffer (see ref. 43 for the recipe), were added to each well. The synchronized L1 worms were obtained from an embryo preparation performed the previous day (see ref. 43 for the protocol). For the L1 assays, 0.5 μl of test compound solution (or DMSO alone) was immediately added to the wells using a multichannel pipette; the final DMSO concentration is 1% (v/v). The worms were incubated for 3 days at 20° C. and the number of viable animals was counted.
At least three biological replicates were performed for each dose-response assay. For each biological replicate, two technical replicates were performed and the numbers of viable animals for each technical replicate were combined (i.e. ˜ 50 worms assayed per concentration). The number of viable worms at each concentration was divided by the corresponding DMSO control value to give the “relative viability” for each concentration. The “relative viability” values were then averaged across the biological replicates. Minimum lethal concentration was defined as the lowest concentration at which at least 20% of worms die.

The subject of the next data set is M. incognita J2 larvae. In words: Meloidogyne incognita in vitro larval mobility assay. It counts as in vivo. The conditions noted are these: 45 μM, 4 days; for Replicate 1 z-score / Replicate 2 z-score: z-score vs untreated DMSO wells; for pest or weed control at 45 µM: Meloidogyne incognita, 96 h. The essentials: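 Infective J2 juveniles of M. incognita Race 1, about 35 per well, were exposed to compound at 45 μM in deionized water with 0.5% DMSO for 4 days at 25° C without shaking. Immobile worms were counted as % of total, averaged over two replicates. A z-score against DMSO control wells was also computed, with z > 1.645 in both replicates marking a hit.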

A further data set has as its system tomato plants. Put plainly: Root mass of tomato plants in the soil infectivity assay. The conditions noted are these: 45 μM in soil, 8 weeks.
For the next data set, the system named is M. hapla eggs. In words: Meloidogyne hapla in vitro egg hatch assay. It counts as in vivo. The following applies: 45 μM; for Number of Hatched Eggs: 8 days at room temperature, about 90 eggs per well, tested once; for Number of Hatched Eggs z-score: 8 days, z-score vs 8 untreated DMSO wells. The method, boiled down: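 About 90 eggs per well, freed from carrot-root egg masses with 10% bleach for 4 min, were exposed in deionized water to 0.5 μL compound or DMSO. Hatched eggs were counted after 8 days at room temperature without shaking in humid conditions. Each treatment was tested once, with z-scores calculated from 8 untreated DMSO control wells.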

A further data set deals with M. incognita. Put plainly: Meloidogyne incognita infectivity assay (soil, tomato roots). The class given is in vivo. The conditions noted are these: Meloidogyne incognita, 1344 h, 45 μM in soil, 8 weeks, eggs per mg root relative to DMSO control, read-out: % effectiveness at inhibiting reproduction of M. incognita. From the text: An M. incognita population originally collected from grape (Vitis vinifera) in Parlier, California, was used for all experiments, and they were maintained on tomato plants (Solanum lycopersicum ‘Rutgers’) as previously described^47. Infective J2 juveniles were collected as described in ref. 47.

In a further data set the test system is M. chitwoodi J2 larvae. In words: Meloidogyne chitwoodi in vitro larval mobility assay. The conditions noted are these: Meloidogyne chitwoodi, 48 h, 2 days, average of three replicates, read-out: % Immobile. The class given is in vivo. The method, then:
M. chitwoodi race 1 (the strain commonly found in the pacific northwest of the United States) was used for all experiments, and was maintained on tomato plants (Solanum lycopersicum ‘Rutgers’) as previously described^47. The microwell dose-response experiments were carried out similarly to previously described protocols^44,46. […] The chemicals were tested at 45 μM, and the final concentration of DMSO in each well was 0.5% (v/v). The wells were covered with a plastic adhesive strip, and the lids of the plates were sealed with parafilm. The plates were incubated at 25° C. for 2 days. The percent of worms that were immobile (% immobile) was quantified by counting the number of immobile worms after 2 days of incubation, dividing the number of immobile worms by the total number of worms in the well, and then multiplying by 100. […] The average % immobile value was calculated across the three replicates.

Setting [1] is: lowest concentration at which at least 20% of worms die, read-out: Minimum Lethal Concentration.
Where [2] appears, read: same values in ppm, read-out: Minimum Lethal Concentration (ppm).
The mark [3] stands for this setting: average of the two replicates, read-out: Average % Immobile.
Where [4] appears, read: replicate 1, read-out: Replicate 1 % Immobile.
Where [5] appears, read: replicate 2, read-out: Replicate 2 % Immobile.

Description for tomato plants: For the infectivity assays, 90 grams of soil (1:1 sand:loam mix) was added to each cell of several 6-cell plastic garden packs. The soil was drenched with 18 mL of deionized water containing dissolved test compound or DMSO alone. 2,500 infective J2 juveniles were then added to the soil in 2 mL of deionized water, for a total water volume of 20 mL. […] The DMSO concentration varied from 0.1% to 0.8% (v/v) depending on the stock concentration of the test compound. The highest DMSO concentration was used as the DMSO control. The J2s were incubated in the soil and chemical for 24 hours, after which two- to three-week old tomato seedlings were transplanted into the soil (one plant per cell). Two replicates were performed for each chemical treatment, and four replicates were done for the DMSO controls. The whole experiment was replicated twice, in two different batches on two different days, for a total of four replicates for each test compound treatment, and eight replicates for the DMSO controls. Inoculated plants were grown for 8 weeks in a greenhouse, as described^47, under long-day conditions (16-h photoperiod) with 26/18° C. day/night temperatures. After 8 weeks, the plants were destructively harvested. The tops were removed and discarded, and roots were gently washed with water to remove adhering soil. Eggs were extracted by placing rinsed roots in 0.6% sodium hypochlorite and agitating at 300 rpm for 3 min. Roots were then rinsed over nested 250—and 25.4-μm sieves, with eggs collected from the latter and suspended in water. Roots were dried in a 65° C. oven for at least 24 hours, after which dry roots were weighed. The number of eggs from each plant root was counted on a dissection microscope using a haemocytometer, and the number of eggs per milligram of root was calculated by dividing the total egg number by the mass of the dried root material. An average was taken across the replicates performed on the same day, and then normalized to the DMSO control average. […] An average percent effectiveness value was then calculated across the two different batches carried out on different days.

`Clc1ccc(-c2cn3ccsc3n2)cc1Cl` [I-31]: the minimal effective concentration in the data set with C. elegans (setting [1]) was 6.25 µM; with C. elegans (setting [2]), 1.7 µg/mL. Further, the “Replicate 1 z-score” value in the data set with M. incognita J2 larvae (replicate 1) was “[2.33]”. For the same molecule, the “Replicate 2 z-score” value with M. incognita J2 larvae (replicate 2) is “[4.78]”. The pest or weed control at 45 µM in the data set on M. incognita J2 larvae (setting [3]) came out at 35.1%; in the data set with M. incognita J2 larvae (setting [4]), 34.1%; in the data set on M. incognita J2 larvae (setting [5]), 36.2%; in the data set with M. incognita, 18.1%. The “Normalized root mass (relative to DMSO control)” value in the data set on tomato plants was found to be 1.25. The “Number of Hatched Eggs” value with M. hapla eggs is on record as 1. The “Number of Hatched Eggs z-score” value with M. hapla eggs is “[4.30]”.
Turning to `Cc1c(-c2ccccc2)nc2sccn12` [I-1], the pest or weed control at 45 µM in the data set on M. chitwoodi J2 larvae came out at 48.2%. Besides, the minimal effective concentration is above 100 µM in the data set with C. elegans (setting [1]) and above 21.4 µg/mL in the data set on C. elegans (setting [2]).
Regarding `Cc1c(-c2ccc(Br)cc2)nc2sccn12` [I-33], the pest or weed control at 45 µM with M. chitwoodi J2 larvae came to 58.1%; in the data set on M. incognita J2 larvae (setting [3]) it was 32.1%; with M. incognita J2 larvae (setting [4]) it was 31.4%; in the data set on M. incognita J2 larvae (setting [5]), 32.8%; with M. incognita it was 7.9%. Also, the minimal effective concentration was determined as 12.5 µM with C. elegans (setting [1]) and 3.7 µg/mL in the data set on C. elegans (setting [2]). Moreover, in the data set on M. incognita J2 larvae (replicate 1), the “Replicate 1 z-score” value is “[1.78]”. Also, in the data set with M. incognita J2 larvae (replicate 2), the “Replicate 2 z-score” value was “[4.16]”. The “Normalized root mass (relative to DMSO control)” value with tomato plants is reported as 1.45.
On to `c1cncc(-c2cn3ccsc3n2)c1` [I-45], for which the pest or weed control at 45 µM was determined as 13.8% in the data set on M. chitwoodi J2 larvae, 29.8% in the data set with M. incognita J2 larvae (setting [3]), 32.1% in the data set with M. incognita J2 larvae (setting [4]) and 27.4% in the data set with M. incognita J2 larvae (setting [5]). The minimal effective concentration was above 100 µM in the data set with C. elegans (setting [1]) and above 20.1 µg/mL with C. elegans (setting [2]). In the data set with M. incognita J2 larvae (replicate 1), the “Replicate 1 z-score” value was “[1.92]”. The “Replicate 2 z-score” value in the data set with M. incognita J2 larvae (replicate 2) was “[3.20]”.
In the case of `Clc1ccccc1-c1cn2ccsc2n1` [I-27], the minimal effective concentration stood at 100 µM in the data set on C. elegans (setting [1]) and 23.5 µg/mL in the data set with C. elegans (setting [2]). Moreover, the “Replicate 1 z-score” value with M. incognita J2 larvae (replicate 1) was “[6.81]”. The “Replicate 2 z-score” value in the data set with M. incognita J2 larvae (replicate 2) is “[3.28]”. Moreover, the pest or weed control at 45 µM in the data set with M. incognita J2 larvae (setting [3]) was found to be 42%; in the data set on M. incognita J2 larvae (setting [4]), 56%; in the data set with M. incognita J2 larvae (setting [5]), 27.9%; in the data set on M. incognita, 0%. Further, the “Normalized root mass (relative to DMSO control)” value with tomato plants was determined as 1.42. In addition, the “Number of Hatched Eggs” value in the data set with M. hapla eggs turned out to be 4. The “Number of Hatched Eggs z-score” value in the data set with M. hapla eggs is “[3.31]”.
Turning to `Cc1cn2cc(-c3cccc(F)c3)nc2s1` [I-17], the minimal effective concentration with C. elegans (setting [1]) is 100 µM; with C. elegans (setting [2]) it was 23.2 µg/mL. Moreover, the “Normalized root mass (relative to DMSO control)” value in the data set with tomato plants worked out at 1.30. For the same molecule, in the data set on M. hapla eggs, the “Number of Hatched Eggs” value stood at 3. In addition, the “Number of Hatched Eggs z-score” value with M. hapla eggs is “[3.64]”. The pest or weed control at 45 µM in the data set with M. incognita was found to be 21.8%.
On to `Clc1ccc(-c2cn3ccoc3n2)cc1` [I-47, 6-(4-chlorophenyl)imidazo[2,1-b]oxazole], for which the pest or weed control at 45 µM with M. chitwoodi J2 larvae came to 62.7%; with M. incognita J2 larvae (setting [4]), 95.9%; in the data set on M. incognita J2 larvae (setting [5]), 95.6%. Further, the minimal effective concentration with C. elegans (setting [1]) was determined as 50 µM; in the data set on C. elegans (setting [2]), 10.9 µg/mL. In addition, in the data set with M. incognita J2 larvae (replicate 1), the “Replicate 1 z-score” value is “[14.96]”. For the same molecule, the “Replicate 2 z-score” value in the data set on M. incognita J2 larvae (replicate 2) was “[15.52]”. Also, in the data set on M. hapla eggs, the “Number of Hatched Eggs” value turned out to be 1. The “Number of Hatched Eggs z-score” value in the data set with M. hapla eggs is “[4.30]”.
As for `Fc1cccc(-c2cn3ccsc3n2)c1` [I-14], the figures for the minimal effective concentration with C. elegans (setting [1]) and with C. elegans (setting [2]) were 100 µM and 21.8 µg/mL, respectively. Also, in the data set on M. incognita J2 larvae (replicate 1), the “Replicate 1 z-score” value was “[15.43]”. Besides, the “Replicate 2 z-score” value in the data set with M. incognita J2 larvae (replicate 2) was “[13.11]”. Moreover, the pest or weed control at 45 µM was at least 75% with M. incognita J2 larvae (setting [3]), 98.2% in the data set on M. incognita J2 larvae (setting [4]), 82.2% in the data set with M. incognita J2 larvae (setting [5]) and 17.6% in the data set with M. incognita. Also, the “Normalized root mass (relative to DMSO control)” value in the data set on tomato plants is 1.28. Besides, the “Number of Hatched Eggs” value in the data set on M. hapla eggs is on record as 1. The “Number of Hatched Eggs z-score” value in the data set on M. hapla eggs was “[4.30]”.
Take `Cc1c(-c2ccc(Cl)cc2)nc2sccn12` [I-22]: the pest or weed control at 45 µM is above 75% in the data set with M. chitwoodi J2 larvae, 46.5% in the data set with M. incognita J2 larvae (setting [3]), 59.6% with M. incognita J2 larvae (setting [4]) and 33.3% with M. incognita J2 larvae (setting [5]). In addition, the minimal effective concentration was determined as 12.5 µM with C. elegans (setting [1]) and 3.1 µg/mL in the data set with C. elegans (setting [2]). In addition, the “Replicate 1 z-score” value in the data set with M. incognita J2 larvae (replicate 1) is “[7.55]”. Besides, the “Replicate 2 z-score” value in the data set on M. incognita J2 larvae (replicate 2) was “[4.26]”. Moreover, in the data set on M. hapla eggs, the “Number of Hatched Eggs” value came out at 1. Further, the “Number of Hatched Eggs z-score” value with M. hapla eggs was “[4.30]”.
Regarding `Cc1csc2nc(-c3ccccc3Cl)cn12` [I-29], the minimal effective concentration in the data set on C. elegans (setting [1]) turned out to be 100 µM. The minimal effective concentration in the data set with C. elegans (setting [2]) was 24.9 µg/mL. The “Normalized root mass (relative to DMSO control)” value in the data set on tomato plants is reported as 1.14. Besides, in the data set with M. hapla eggs, the “Number of Hatched Eggs” value turned out to be 4 and the “Number of Hatched Eggs z-score” value is “[3.31]”. Moreover, the pest or weed control at 45 µM in the data set on M. incognita was 15%.
Regarding `Cc1c(-c2ccc(F)cc2)nc2sccn12` [I-13], the pest or weed control at 45 µM in the data set on M. chitwoodi J2 larvae came out at 32.4%; in the data set with M. incognita J2 larvae (setting [3]), 28.4%; in the data set on M. incognita J2 larvae (setting [4]) it was 35.3%; with M. incognita J2 larvae (setting [5]) it was 21.6%; in the data set with M. incognita, 0%. Further, the minimal effective concentration in the data set with C. elegans (setting [1]) is above 100 µM; in the data set with C. elegans (setting [2]), above 23.2 µg/mL. Also, the “Replicate 1 z-score” value with M. incognita J2 larvae (replicate 1) is “[2.58]”. Further, the “Replicate 2 z-score” value with M. incognita J2 larvae (replicate 2) was “[2.14]”. In addition, the “Normalized root mass (relative to DMSO control)” value in the data set with tomato plants is 1.12.
In the case of `O=C(NCCc1ncc(C(F)(F)F)cc1Cl)c1ccccc1C(F)(F)F` [Fluopyram, fluopyram, reference compound], the pest or weed control at 45 µM with M. chitwoodi J2 larvae, with M. incognita J2 larvae (setting [3]), in the data set with M. incognita J2 larvae (setting [4]) and with M. incognita J2 larvae (setting [5]) was 100% in each case. The “Replicate 1 z-score” value in the data set with M. incognita J2 larvae (replicate 1) is “[14.82]”. The “Replicate 2 z-score” value in the data set with M. incognita J2 larvae (replicate 2) was “[21.99]”. Moreover, the “Number of Hatched Eggs” value with M. hapla eggs was found to be 0. Moreover, the “Number of Hatched Eggs z-score” value with M. hapla eggs is “[4.63]”.
